Data on 24 compounds can be found in US7528138B2, “Pyrazolo[1,5-a]pyrimidines useful as inhibitors of protein kinases” (Vertex Pharmaceuticals Incorporated, priority 2004, dated 2009).

The target in the first assay is Aurora-B (Homo sapiens, UniProt Q96GD4). Put plainly: Aurora B (Aurora-1) Inhibition Assay, 33P incorporation. The format is biochemical. Particulars: enzyme inhibition data (Ki), Table 11; read-out: AurB Ki. How it is done: An assay buffer solution is prepared which consists of 25 mM HEPES (pH 7.5), 10 mM MgCl2, 0.1% BSA and 10% glycerol. A 22 nM Aurora-B solution, also containing 1.7 mM DTT and 1.5 mM Kemptide (LRRASLG), is prepared in assay buffer. To 22 μL of the Aurora-B solution, in a 96-well plate, is added 2 μl of a compound stock solution in DMSO and the mixture is allowed to equilibrate for 10 minutes at 25° C. The enzyme reaction is initiated by the addition of 16 μl stock [γ-^33P]-ATP solution (˜20 nCi/μL) prepared in assay buffer, to a final assay concentration of 800 μM. The reaction is stopped after 3 hours by the addition of 16 μL 500 mM phosphoric acid and the levels of ^33P incorporation into the peptide substrate is determined by the following method.
Sequence of Aurora-B (Q96GD4 whole entry): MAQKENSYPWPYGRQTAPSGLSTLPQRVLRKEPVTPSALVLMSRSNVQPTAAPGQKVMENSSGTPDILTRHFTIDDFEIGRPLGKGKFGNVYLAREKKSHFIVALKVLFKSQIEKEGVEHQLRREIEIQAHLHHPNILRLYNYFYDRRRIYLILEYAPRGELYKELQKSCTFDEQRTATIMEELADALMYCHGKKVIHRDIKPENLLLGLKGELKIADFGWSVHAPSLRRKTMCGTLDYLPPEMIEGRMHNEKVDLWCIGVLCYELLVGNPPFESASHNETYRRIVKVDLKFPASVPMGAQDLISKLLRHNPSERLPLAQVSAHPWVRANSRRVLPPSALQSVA
A phosphocellulose 96-well plate (Millipore, Cat no. MAPHNOB50) is pre-treated with 100 μL of a 100 mM phosphoric acid prior to the addition of the enzyme reaction mixture (40 μL). The solution is left to soak on to the phosphocellulose membrane for 30 minutes and the plate subsequently is washed four times with 200 μL of a 100 mM phosphoric acid. To each well of the dry plate is added 30 μL of Optiphase ‘SuperMix’ liquid scintillation cocktail (Perkin Elmer) prior to scintillation counting (1450 Microbeta Liquid Scintillation Counter, Wallac). Levels of non-enzyme catalysed background radioactivity are determined by adding 16 μL of the 500 mM phosphoric acid to control wells, containing all assay components (which acts to denature the enzyme), prior to the addition of the [γ-^33P]-ATP solution. Levels of enzyme catalysed ^33P incorporation are calculated by subtracting mean background counts from those measured at each inhibitor concentration. For each Ki determination 8 data points, typically covering the concentration range 0-10 μM compound, are obtained in duplicate (DMSO stocks are prepared from an initial compound stock of 10 mM with subsequent 1:2.5 serial dilutions). Ki values are calculated from initial rate data by non-linear regression using the Prism software package (Prism 3.0, Graphpad Software, San Diego, Calif.).
For orientation: Ki means the dissociation constant of the complex between target and ligand, obtained from inhibition or displacement. For `Cc1ccc(-c2c(N)nn3cc(-c4ccncc4)cnc23)nc1` [Compound V-132], the inhibition constant Ki was 500 to 5000 nM. On the same count and under the same terms, the result for `Cc1ccnc(-c2c(N)nn3cc(-c4ccncc4)cnc23)c1` [Compound V-133] reads 500 to 5000 nM; that for `Nc1nn2cc(-c3ccncc3)cnc2c1-c1ncccc1OCc1ccccc1` [Compound V-134], 500 to 5000 nM.

Turning to `Cc1cccnc1-c1c(N)nn2cc(-c3ccncc3)cnc12` [Compound V-135], the Ki lay within 500 to 5000 nM.

As for `Cc1cccc(-c2c(N)nn3cc(-c4ccncc4)cnc23)n1` [Compound V-178], the Ki was 500 to 5000 nM. `Nc1nn2cc(-c3ccncc3)cnc2c1-c1cc(N2CCCCC2)ncn1` [Compound V-179]: the Ki is < 500 nM.

The target of the next assay is T1, Rlk (Homo sapiens, UniProt P42681).
T1 sequence (P42681 1-527): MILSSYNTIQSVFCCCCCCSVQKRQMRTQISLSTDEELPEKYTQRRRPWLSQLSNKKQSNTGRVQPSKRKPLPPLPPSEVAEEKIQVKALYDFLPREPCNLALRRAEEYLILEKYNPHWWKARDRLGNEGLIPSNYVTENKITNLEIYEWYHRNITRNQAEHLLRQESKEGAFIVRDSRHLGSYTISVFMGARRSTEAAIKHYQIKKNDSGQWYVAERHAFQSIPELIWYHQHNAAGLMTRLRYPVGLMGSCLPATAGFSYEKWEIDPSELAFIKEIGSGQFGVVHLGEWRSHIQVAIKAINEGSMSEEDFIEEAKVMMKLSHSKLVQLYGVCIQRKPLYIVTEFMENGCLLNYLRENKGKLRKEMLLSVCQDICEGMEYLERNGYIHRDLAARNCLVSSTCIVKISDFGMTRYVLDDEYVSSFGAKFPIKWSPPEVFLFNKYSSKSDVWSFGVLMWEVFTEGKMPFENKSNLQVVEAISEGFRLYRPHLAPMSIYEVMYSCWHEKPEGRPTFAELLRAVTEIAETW
The assay is described as follows: RLK Inhibition Assay, coupled enzyme assay. The format is biochemical. Particulars: enzyme inhibition data (Ki), Table 11. On the procedure: Compounds are screened for their ability to inhibit Rlk using a standard coupled enzyme assay (Fox et al., Protein Sci., (1998) 7, 2249). Assays are carried out in a mixture of 20 mM MOPS (pH 7.0), 10 mM MgCl2, 0.1% BSA and 1 mM DTT. Final substrate concentrations in the assay are 100 μM ATP (Sigma Chemicals) and 10 μM peptide (Poly Glu:Tyr 4:1). Assays are carried out at 30° C. and in the presence of 40 nM Rlk. Final concentrations of the components of the coupled enzyme system are 2.5 mM phosphoenolpyruvate, 300 μM NADH, 30 μg/ml pyruvate kinase and 10 μg/ml lactate dehydrogenase.
An assay stock buffer solution is prepared containing all of the reagents listed above, with the exception of ATP and the test compound of interest. 60 μl of the stock solution is placed in a 96 well plate followed by addition of 2 μl of DMSO stock containing serial dilutions of the test compound (typically starting from a final concentration of 7.5 μM). The plate is preincubated for 10 minutes at 30° C. and the reaction initiated by addition of 5 μl of ATP. Initial reaction rates are determined with a Molecular Devices SpectraMax Plus plate reader over a 10 minute time course. IC50 and Ki data are calculated from non-linear regression analysis using the Prism software package (GraphPad Prism version 3.0cx for Macintosh, GraphPad Software, San Diego Calif., USA).
As to `CN(C)CCN(C)C(=O)c1ccc(-c2cnc3c(-c4ccccn4)c(N)nn3c2)cc1` [Compound V-188], the Ki was < 500 nM.

For the compound `CNCCCN(C)C(=O)c1ccc(-c2cnc3c(-c4ccccn4)c(N)nn3c2)cc1` [Compound V-191], the Ki is < 500 nM.

Turning to `NCc1ccc(-c2cnc3c(-c4ccccn4)c(N)nn3c2)cc1` [Compound V-195], the Ki lay within 500 to 5000 nM.

For `NCc1cccc(-c2cnc3c(-c4ccccn4)c(N)nn3c2)c1` [Compound V-202], the Ki lay in the range of 500 to 5000 nM. On to `CN(C)Cc1ccc(-c2cnc3c(-c4ccccn4)c(N)nn3c2)cc1` [Compound V-214], for which the Ki lay within 500 to 5000 nM. In turn, `CN(C)Cc1cccc(-c2cnc3c(-c4ccccn4)c(N)nn3c2)c1` [Compound V-215] yielded a Ki of 500 to 5000 nM.

Regarding `Nc1nn2cc(-c3ccc(CN4CCNCC4)cc3)cnc2c1-c1ccccn1` [Compound V-217], the Ki is < 500 nM. In turn, `Nc1nn2cc(-c3cccc(N4CCNCC4)c3)cnc2c1-c1ccccn1` [Compound V-222] came in with a Ki of 500 to 5000 nM. In turn, `Nc1nn2cc(-c3cccc(CN4CCNCC4)c3)cnc2c1-c1ccccn1` [Compound V-223] had a Ki of 500 to 5000 nM. Turning to `NC1NN2C=C(c3cccc(CN4CC[C@H](N)C4)c3)C=NC2=C1c1ccccn1` (stereo partly drawn) [Compound V-227], the Ki lay in the range of 500 to 5000 nM. On the same count and under the same terms, the result for `NC1NN2C=C(c3cccc(CN4CCCNCC4)c3)C=NC2=C1c1ccccn1` (stereo not drawn) [Compound V-228] reads 500 to 5000 nM. `NC1CCN(Cc2cccc(C3=CN4NC(N)C(c5ccccn5)=C4N=C3)c2)CC1` (stereo not drawn) [Compound V-229] yielded a Ki of 500 to 5000 nM. On to `CNCCCN(C)Cc1ccc(-c2cnc3c(-c4ccccn4)c(N)nn3c2)cc1` [Compound V-230], for which the Ki is < 500 nM. On the same count and under the same terms, the result for `Nc1nn2cc(-c3ccc(CN4CC[C@@H](N)C4)cc3)cnc2c1-c1ccccn1` [Compound V-231] reads 500 to 5000 nM. With `Nc1nn2cc(-c3ccc(CNC4CCNCC4)cc3)cnc2c1-c1ccccn1` [Compound V-232], the Ki was in the range of 500 to 5000 nM. The compound `Nc1nn2cc(-c3ccc(CN4CC[C@H](N)C4)cc3)cnc2c1-c1ccccn1` [Compound V-233] displayed a Ki of 500 to 5000 nM.

As for `Nc1nn2cc(-c3ccc(CN4CCC(N)CC4)cc3)cnc2c1-c1ccccn1` [Compound V-234], the Ki fell in the range of 500 to 5000 nM.

`CNCc1ccc(-c2cnc3c(-c4ccccn4)c(N)nn3c2)cc1` [Compound V-236] came in with a Ki of 500 to 5000 nM.
